Measured values reported in US20110065632A1, “PHARMACEUTICAL COMPOSITIONS OF SOMATOSTATIN-DOPAMINE CONJUGATES” (priority 2008, published 2011).
Where two headings read alike, the source gives them in different places. Numbered stars: 1 amine (or outer) side, 2 acyl side, 3 side chain; on linkers, the order of the positions; unused ones are H or OH. Bridge positions count the residues as written; N and C are the ends. Square brackets hold non-standard residues; d marks the D form. Peptide text beside a SMILES is read from it. * marks the point of attachment. X1 = CCCN1C[C@H](CSCC(=O)*)C[C@@H]2c3cccc4[nH]cc(c34)C[C@H]21; X2 = CN1C[C@H](CSCC(=O)*)C[C@@H]2c3cccc4[nH]cc(c34)C[C@H]21; Pipz(1-CH2CO,4-CH2CH2NH) = O=C(CN1CCN(CCN[*:1])CC1)[*:2]; Abu = CC[C@H](N)C(=O)O; AEEA = NCCOCCOCC(=O)O

What was measured:
hsst1 = target: T1, hsst1 (Homo sapiens, UniProt P30872); test: Somatostatin receptor radioligand binding assay, hsst1; settings: CHO-K1 membranes, [125I-Tyr11]SS-14; read-out: hsst1 Ki
T1 construct: expressed in transfected cells
T1 sequence (P30872 whole entry): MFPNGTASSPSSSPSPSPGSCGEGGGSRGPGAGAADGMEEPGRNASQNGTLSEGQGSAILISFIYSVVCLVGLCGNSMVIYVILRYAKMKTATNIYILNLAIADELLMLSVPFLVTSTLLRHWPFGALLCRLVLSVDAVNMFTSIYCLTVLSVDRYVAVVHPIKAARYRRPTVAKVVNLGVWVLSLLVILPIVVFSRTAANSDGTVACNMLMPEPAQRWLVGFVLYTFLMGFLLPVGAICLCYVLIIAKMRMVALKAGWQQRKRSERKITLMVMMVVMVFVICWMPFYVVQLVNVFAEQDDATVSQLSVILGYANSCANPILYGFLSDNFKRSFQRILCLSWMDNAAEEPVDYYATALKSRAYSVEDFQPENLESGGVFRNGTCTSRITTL
Procedure: (§1) Specificity and selectivity of the somatostatin analogues used to synthesize the somatostatin-dopamine chimers were determined by a radioligand binding assay on CHO-K1 cells stably transfected with each of the SSTR subtypes, as follows. Somatostatin analogs are also described in U.S. Patent Application Publication No. 02210006790. The complete coding sequences of genomic fragments of the SSTR 1 (e.g., Genbank accession No. M81829), SSTR 2 (e.g., Genbank accession No. M81830), SSTR 3 (e.g., Genbank accession No. L07062), and SSTR 4 (e.g., Genbank accession No. AL049651) genes and a cDNA clone for SSTR 5 (e.g., Genbank accession No. D16827) was subcloned into the mammalian expression vector pCMV (Life Technologies, Milano, Italy). Other SSTR sequences are known to the skilled artisan. Clonal cell lines stably expressing SSTR's 1-5 were obtained by transfection into CHO-K1 cells (ATCC, Manassas, Va., USA) using the calcium phosphate co-precipitation method (Davis L, et al., 1994 In: Basic methods in Molecular Biology, 2nd edition, Appleton & Lange, Norwalk, Conn., USA: 611-646). The plasmid pRSV-neo (ATCC) was included as a selectable marker. Clonal cell lines were selected in RPMI 1640 media containing 0.5 mg/mL of G418 (Life Technologies, Milano, Italy), ring cloned, and expanded into culture.
(§2) Membranes for in vitro receptor binding assays were obtained by homogenizing the CHO-K1 cells expressing the SSTR's subtypes in ice-cold 50 mM Tris-HCl and centrifuging twice at 39,000 g (10 min), with an intermediate resuspension in fresh buffer. The final pellets were resuspended in 10 mM Tris-HCl for assay.
(§3) For the SSTR 1, 3, 4, and 5 assays, aliquots of the membrane preparations were incubated 90 minutes at 25° C. with 0.05 nM [^125I-Tyr11]SS-14 in 50 mM HEPES (pH 7.4) containing 10 mg/mL BSA, 5 mM MgCl2, 200 KIU/mL Trasylol, 0.02 mg/mL bacitracin, and 0.02 mg/mL phenylmethylsuphonyl fluoride. The final assay volume was 0.3 mL.
(§4) For the SSTR 2 assay, 0.05 nM [^125I]MK-678 was employed as the radioligand and the incubation time was 90 minutes at 25° C. The incubations were terminated by rapid filtration through GF/C glass microfiber filters (Whatman Co.) (pre-soaked in 0.3% polyethylenimine) using a BRANDEL filtration manifold. Each tube and filter was washed three times with 5 mL aliquots of ice-cold buffer. Specific binding was defined as the total radioligand bound minus that bound in the presence of 1000 nM SS-14 for SSTR 1, 3, 4, and 5, or 1000 nM MK-678 for SSTR2.
(§5) Using the discussed assays, the inhibition constants (Ki) for the five human somatostatin receptors (hSSTR1-hSSTR5) and the dopamine-2 receptor (hUTII and hDA2) were measured for the exemplified somatostatin-dopamine conjugates, as follows: […]

hsst2 = target: T2, hsst2 (Homo sapiens, UniProt P30874); test: Somatostatin receptor radioligand binding assay, hsst2; settings: CHO-K1 membranes, [125I]MK-678; read-out: hsst2 Ki
T2 construct: expressed in transfected cells
T2 sequence (P30874 whole entry): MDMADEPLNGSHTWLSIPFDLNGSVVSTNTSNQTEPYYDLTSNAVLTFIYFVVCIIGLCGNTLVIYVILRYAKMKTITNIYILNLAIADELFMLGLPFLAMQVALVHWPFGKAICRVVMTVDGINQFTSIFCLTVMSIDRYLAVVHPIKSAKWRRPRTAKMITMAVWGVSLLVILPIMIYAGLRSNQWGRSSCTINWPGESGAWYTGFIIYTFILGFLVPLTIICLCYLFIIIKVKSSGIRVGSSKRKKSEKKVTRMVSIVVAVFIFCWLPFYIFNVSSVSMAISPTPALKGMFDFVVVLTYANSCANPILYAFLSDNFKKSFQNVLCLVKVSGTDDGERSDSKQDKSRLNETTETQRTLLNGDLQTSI
Procedure: as §1, §2, §4

hsst3 = target: T3, hsst3 (Homo sapiens, UniProt P32745); test: Somatostatin receptor radioligand binding assay, hsst3
T3 construct: expressed in transfected cells
T3 sequence (P32745 whole entry): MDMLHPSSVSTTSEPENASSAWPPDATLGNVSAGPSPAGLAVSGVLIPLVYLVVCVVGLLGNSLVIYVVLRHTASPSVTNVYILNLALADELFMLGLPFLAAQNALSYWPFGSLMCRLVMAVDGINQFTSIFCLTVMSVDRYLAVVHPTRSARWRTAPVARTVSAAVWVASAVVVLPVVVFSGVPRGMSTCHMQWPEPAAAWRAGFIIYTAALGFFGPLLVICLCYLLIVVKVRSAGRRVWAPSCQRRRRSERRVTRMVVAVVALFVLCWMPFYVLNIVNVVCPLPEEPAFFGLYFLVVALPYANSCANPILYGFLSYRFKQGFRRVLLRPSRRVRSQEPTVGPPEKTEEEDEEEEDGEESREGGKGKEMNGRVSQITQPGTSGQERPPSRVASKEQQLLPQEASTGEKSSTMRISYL
Procedure: as §1, §2, §3, §4, §5

hUTII = target: T4, hUTII (Homo sapiens, UniProt Q9UKP6); test: hUTII inhibition constant; type: binding; settings: read-out: hUTII Ki
T4 sequence (Q9UKP6 1-389): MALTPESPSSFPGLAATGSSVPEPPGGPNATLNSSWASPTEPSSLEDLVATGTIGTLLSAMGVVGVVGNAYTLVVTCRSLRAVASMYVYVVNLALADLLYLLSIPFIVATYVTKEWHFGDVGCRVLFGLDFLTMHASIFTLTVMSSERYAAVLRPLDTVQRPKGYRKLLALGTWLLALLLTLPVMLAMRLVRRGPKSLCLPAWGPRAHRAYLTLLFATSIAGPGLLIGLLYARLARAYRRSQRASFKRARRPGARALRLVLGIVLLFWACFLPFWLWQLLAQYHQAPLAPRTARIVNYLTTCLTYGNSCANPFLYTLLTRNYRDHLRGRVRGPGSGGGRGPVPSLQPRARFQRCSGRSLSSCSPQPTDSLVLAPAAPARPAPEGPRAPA
Procedure: as §5

hDA2 = test: Dopamine-2 receptor radioligand binding assay; set-up: species or system human; settings: [3H]spiperone
Procedure: Specificity and selectivity for the dopamine-2 receptor of the dopamine analogues used to synthesize the somatostatin-dopamine chimers may be determined by a radioligand binding assay as follows.
Crude membranes were prepared by homogenization of frozen rat corpus striatum (Zivic Laboratories, Pittsburgh, Pa., USA) in 20 mL of ice-cold 50 mM Tris-HCl with a Brinkman Polytron cell disrupter (setting 6, 15 sec). Buffer was added to obtain a final volume of 40 mL, and the homogenate was centrifuged in a Sorval SS-34 rotor at 39,000 g for 10 minutes at 0-4° C. The resulting supernatant was decanted and discarded. The pellet was rehomogenized in ice-cold buffer, pre-incubated at 37° C. for 10 min, diluted, and centrifuged as before. The final pellet was resuspended in buffer and held on ice for the receptor binding assay.
For assay, aliquots of the washed membrane preparations and test compounds were incubated for 15 minutes (37° C.) with 0.25 nM [^3HI]spiperone (16.5 Ci.mmol, New England Nuclear, Boston, Mass., USA) in 50 mM Tris HCl, 120 mM NaCl, 5 mM KCl, 2 mM CaCl2, 1 mM MgCl2. The final assay volume was 1.0 mL. The incubations were terminated by rapid filtration through GF/B glass fibre filters using a Brandel filtration manifold. Each tube and filter was then washed three times with 5-mL aliquots of ice-cold buffer. Specific binding was defined as the total radioligand bound minus that bound in the presence of 1000 nM (+) butaclamol.
as §5

hsst5 = target: T5, hsst5 (Homo sapiens, UniProt P35346); test: Somatostatin receptor radioligand binding assay, hsst5; settings: CHO-K1 membranes, [125I-Tyr11]SS-14
T5 construct: expressed in transfected cells
T5 sequence (P35346 whole entry): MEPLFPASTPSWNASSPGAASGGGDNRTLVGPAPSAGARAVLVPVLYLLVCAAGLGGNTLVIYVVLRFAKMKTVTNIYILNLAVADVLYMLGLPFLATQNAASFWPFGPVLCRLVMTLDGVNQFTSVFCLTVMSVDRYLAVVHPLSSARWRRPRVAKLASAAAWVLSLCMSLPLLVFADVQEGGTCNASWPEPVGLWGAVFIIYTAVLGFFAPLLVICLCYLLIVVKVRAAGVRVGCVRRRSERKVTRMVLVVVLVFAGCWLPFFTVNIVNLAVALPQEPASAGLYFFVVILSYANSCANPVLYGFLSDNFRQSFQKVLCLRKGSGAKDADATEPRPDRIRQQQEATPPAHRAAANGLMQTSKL
Procedure: as §1, §2, §3, §4

[1] = CHO-K1 membranes, [125I-Tyr11]SS-14, read-out: hsst3 Ki

| Structure (SMILES) | Ki (hsst1) [nM] | Ki (hsst2) [nM] | Ki (hsst3; [1]) [nM] | Ki (hUTII) [nM] | Ki (hDA2) [nM] | Ki (hsst3) [nM] | Ki (hsst5; hsst5 Ki) [nM] | Ki (hsst5; read-out: hsst5 Ki) [nM] |
| --- | --- | --- | --- | --- | --- | --- | --- | --- |
| CCCN1C[C@H](CSCC(=O)N[C@H](Cc2ccccc2)C(=O)N[C@H]2CSSC[C@@H](C(=O)N[C@H](C(N)=O)[C@@H](C)O)NC(=O)[C@H](C(C)C)NC(=O)[C@H](CCCCN)NC(=O)[C@@H](Cc3c[nH]c4ccccc34)NC(=O)[C@H](Cc3ccc(OC(=O)CSC[C@@H]4C[C@@H]5c6cccc7[nH]cc(c67)C[C@H]5N(CCC)C4)c(I)c3)NC2=O)C[C@@H]2c3cccc4[nH]cc(c34)C[C@H]21 [Example 3] | 1000 | 0.37 | 235 | 73.5 | 16.7 | – | – | – |
| CCCN1C[C@H](CSCC(=O)N[C@H](Cc2ccccc2)C(=O)NCCOCCOCC(=O)N[C@H](Cc2ccccc2)C(=O)N[C@H]2CSSC[C@@H](C(=O)N[C@H](C(N)=O)[C@@H](C)O)NC(=O)[C@H](C(C)C)NC(=O)[C@H](CCCCN)NC(=O)[C@@H](Cc3c[nH]c4ccccc34)NC(=O)[C@H](Cc3ccc(O)c(I)c3)NC2=O)C[C@@H]2c3cccc4[nH]cc(c34)C[C@H]21 [Example 4] | 1000 | 0.84 | 397 | 83.7 | 29.6 | – | – | – |
| CCCN1C[C@H](CSCC(=O)NCCN2CCN(CC(=O)N[C@H](Cc3ccccc3)C(=O)N[C@H]3CSSC[C@@H](C(=O)N[C@H](C(N)=O)[C@@H](C)O)NC(=O)[C@H](C(C)C)NC(=O)[C@H](CCCCN)NC(=O)[C@@H](Cc4c[nH]c5ccccc45)NC(=O)[C@H](Cc4ccc(O)c(I)c4)NC3=O)CC2)C[C@@H]2c3cccc4[nH]cc(c34)C[C@H]21 [Example 25] | 1000 | 1.09 | 423 | 233 | 345 | – | – | – |
| CCCN1C[C@H](CSCC(=O)N[C@H](Cc2ccccc2)C(=O)N[C@H]2CSSC[C@@H](C(=O)N[C@H](C(N)=O)[C@@H](C)O)NC(=O)[C@H](C(C)C)NC(=O)[C@H](CCCCN)NC(=O)[C@@H](Cc3c[nH]c4ccccc34)NC(=O)[C@H](Cc3ccc(O)c(I)c3)NC2=O)C[C@@H]2c3cccc4[nH]cc(c34)C[C@H]21 [Example 26] | 731 | 0.4 | 135 | 53.2 | 34 | – | – | – |
| CC[C@@H]1NC(=O)[C@H](CCCCN)NC(=O)[C@@H](Cc2c[nH]c3ccccc23)NC(=O)[C@H](Cc2ccc(O)cc2)NC(=O)[C@@H](NC(=O)[C@@H](Cc2ccc(O)cc2)NC(=O)[C@@H](Cc2ccc(O)cc2)NC(=O)[C@H](CCCCN)NC(=O)CN2CCN(CCNC(=O)CSC[C@@H]3C[C@@H]4c5cccc6[nH]cc(c56)C[C@H]4N(C)C3)CC2)CSSC[C@@H](C(=O)N[C@H](C(N)=O)[C@@H](C)O)NC1=O [Example 32] (X2-[Pipz(1-CH2CO,4-CH2CH2NH)]K[dY][dY]CY[dW]K[Abu]CT-NH2; disulfide 5-10) | – | 0.22 | – | 267 | 136 | 45.6 | 13.8 | – |
| CC[C@@H]1NC(=O)[C@H](CCCCN)NC(=O)[C@@H](Cc2c[nH]c3ccccc23)NC(=O)[C@H](Cc2ccc(O)cc2)NC(=O)[C@@H](NC(=O)[C@@H](Cc2ccc(O)cc2)NC(=O)[C@@H](Cc2ccc(O)cc2)NC(=O)[C@H](CCCCN)NC(=O)CSC[C@@H]2C[C@@H]3c4cccc5[nH]cc(c45)C[C@H]3N(C)C2)CSSC[C@@H](C(=O)N[C@H](C(N)=O)[C@@H](C)O)NC1=O [Example 33] (X2-K[dY][dY]CY[dW]K[Abu]CT-NH2; disulfide 4-9) | – | 0.2 | – | 37.7 | 206 | 65.1 | 9.82 | – |
| CC[C@@H]1NC(=O)[C@H](CCCCN)NC(=O)[C@@H](Cc2c[nH]c3ccccc23)NC(=O)[C@H](Cc2ccc(O)cc2)NC(=O)[C@@H](NC(=O)[C@@H](Cc2ccc(O)cc2)NC(=O)[C@@H](Cc2ccc(O)cc2)NC(=O)[C@H](CCCCN)NC(=O)COCCOCCNC(=O)CSC[C@@H]2C[C@@H]3c4cccc5[nH]cc(c45)C[C@H]3N(C)C2)CSSC[C@@H](C(=O)N[C@H](C(N)=O)[C@@H](C)O)NC1=O [Example 34] ({X2-AEEA}-K[dY][dY]CY[dW]K[Abu]CT-NH2; disulfide 4-9) | – | 0.23 | – | 211 | 114 | 48.4 | 8.6 | – |
| CCCN1C[C@H](CSCC(=O)N[C@@H](CCCCN)C(=O)N[C@H](Cc2ccc(O)cc2)C(=O)N[C@H](Cc2ccc(O)cc2)C(=O)N[C@H]2CSSC[C@@H](C(=O)N[C@H](C(N)=O)[C@@H](C)O)NC(=O)[C@H](CC)NC(=O)[C@H](CCCCN)NC(=O)[C@@H](Cc3c[nH]c4ccccc34)NC(=O)[C@H](Cc3ccc(O)cc3)NC2=O)C[C@@H]2c3cccc4[nH]cc(c34)C[C@H]21 [Example 35] (X1-K[dY][dY]CY[dW]K[Abu]CT-NH2; disulfide 4-9) | – | 0.27 | 109 | 134 | 55.8 | – | – | 13.6 |
| CCCN1C[C@H](CSCC(=O)NCCN2CCN(CC(=O)NCCN3CCN(CC(=O)N[C@H](Cc4ccccc4)C(=O)N[C@H]4CSSC[C@@H](C(=O)N[C@H](C(N)=O)[C@@H](C)O)NC(=O)[C@H](CC)NC(=O)[C@H](CCCCN)NC(=O)[C@@H](Cc5c[nH]c6ccccc56)NC(=O)[C@H](Cc5ccc(O)cc5)NC4=O)CC3)CC2)C[C@@H]2c3cccc4[nH]cc(c34)C[C@H]21 [Example 36] (X1-[Pipz(1-CH2CO,4-CH2CH2NH)][Pipz(1-CH2CO,4-CH2CH2NH)][dF]CY[dW]K[Abu]CT-NH2; disulfide 4-9) | – | 1.67 | 145 | 3090 | 328 | – | – | 53.5 |
| CC[C@@H]1NC(=O)[C@H](CCCCN)NC(=O)[C@@H](Cc2c[nH]c3ccccc23)NC(=O)[C@H](Cc2ccc(O)cc2)NC(=O)[C@@H](NC(=O)[C@@H](Cc2ccccc2)NC(=O)CN2CCN(CCNC(=O)CSC[C@@H]3C[C@@H]4c5cccc6[nH]cc(c56)C[C@H]4N(C)C3)CC2)CSSC[C@@H](C(=O)N[C@H](C(N)=O)[C@@H](C)O)NC1=O [Example 38] | – | 0.35 | 61.9 | 1190 | 411 | – | – | 28.1 |
